Patent publication US11006631B2, “Substituted pyrimidinyloxy pyridine derivatives as herbicides” (FMC Corporation, priority 2015, dated 2021)

Experiments:
Type in all cases: in vivo
[1] = tested on: barnyardgrass (Echinochloa crus-galli); experiment: Test A postemergence, barnyardgrass; settings: 0 to 100 scale
Excerpt: (§1) Seeds of plant species selected from bamyardgrass (Echinochloa crus-galli), kochia (Kochia scoparia), ragweed (common ragweed, Ambrosia elatior), ryegrass, Italian (Italian ryegrass, Lolium multiflorum), foxtail, giant (giant foxtail, Setaria faberii), pigweed (Amaranthus retroflexus), crabgrass, large (large crabgrass, Digitaria sanguinalis), momingglory (Ipomoea spp.), velvetleaf (Abutilon theophrasti), wheat (Triticum aestivum), and corn (Zea mays) were planted into a blend of loam soil and sand and treated preemergence with a directed soil spray using test chemicals formulated in a non-phytotoxic solvent mixture which included a surfactant. At the same time, plants selected from these crop and weed species and also blackgrass (Alopecurus myosuroides), and galium (catchweed bedstraw, Galium aparine) were planted in pots containing the same blend of loam soil and sand and treated with postemergence applications of test chemicals formulated in the same manner. Plants ranged in height from 2 to 10 cm and were in the one- to two-leaf stage for the postemergence treatment. Treated plants and untreated controls were maintained in a greenhouse for approximately 10 days, after which time all treated plants were compared to untreated controls and visually evaluated for injury. Plant response ratings, summarized in Table A, are based on a 0 to 100 scale where 0 is no effect and 100 is complete control. A dash (-) response means no test result.

rice (Oryza sativa) = experiment: Test B flooded paddy test, rice; settings: Flood, 250 g ai/ha; scale of 0 to 100
Experimental: (§2) Plant species in the flooded paddy test selected from rice (Oryza sativa), sedge, umbrella (small-flower umbrella sedge, Cyperus difformis), ducksalad (Heteranthera limosa), and barnyardgrass (Echinochloa crus-galli) were grown to the 2-leaf stage for testing. At time of treatment, test pots were flooded to 3 cm above the soil surface, treated by application of test compounds directly to the paddy water, and then maintained at that water depth for the duration of the test. Treated plants and controls were maintained in a greenhouse for 13 to 15 days, after which time all species were compared to controls and visually evaluated. Plant response ratings, summarized in Table B, are based on a scale of 0 to 100 where 0 is no effect and 100 is complete control. A dash (-) response means no test result.

[2] = tested on: sedge, umbrella (small-flower umbrella sedge, Cyperus difformis); experiment: Test B flooded paddy test, sedge, umbrella; settings: Flood, 250 g ai/ha; scale of 0 to 100
Experimental: as §2

[3] = tested on: velvetleaf (Abutilon theophrasti); experiment: Test A postemergence, velvetleaf; settings: 0 to 100 scale
Excerpt: as §1

[4] = tested on: velvetleaf (Abutilon theophrasti); experiment: Test A preemergence, velvetleaf; settings: 0 to 100 scale
Excerpt: as §1

[5] = tested on: ducksalad (Heteranthera limosa); experiment: Test B flooded paddy test, ducksalad; settings: Flood, 250 g ai/ha; scale of 0 to 100
Experimental: as §2

[6] = tested on: crabgrass, large (large crabgrass, Digitaria sanguinalis); experiment: Test A preemergence, crabgrass, large; settings: 0 to 100 scale
Excerpt: as §1

[7] = tested on: morningglory (Ipomoea spp.); experiment: Test A postemergence, morningglory; settings: 0 to 100 scale
Excerpt: as §1

[8] = tested on: wheat (Triticum aestivum); experiment: Test A postemergence, wheat; settings: 0 to 100 scale
Excerpt: as §1

[9] = tested on: barnyardgrass (Echinochloa crus-galli); experiment: Test B flooded paddy test, barnyardgrass; settings: Flood, 250 g ai/ha; scale of 0 to 100
Experimental: as §2

corn (Zea mays) [10] = experiment: Test A preemergence, corn; settings: 0 to 100 scale
Excerpt: as §1

[11] = tested on: morningglory (Ipomoea spp.); experiment: Test A preemergence, morningglory; settings: 0 to 100 scale
Excerpt: as §1

[12] = tested on: foxtail, giant (giant foxtail, Setaria faberii); experiment: Test A postemergence, foxtail, giant; settings: 0 to 100 scale
Excerpt: as §1

[13] = tested on: crabgrass, large (large crabgrass, Digitaria sanguinalis); experiment: Test A postemergence, crabgrass, large; settings: 0 to 100 scale
Excerpt: as §1

[14] = tested on: pigweed (Amaranthus retroflexus); experiment: Test A preemergence, pigweed; settings: 0 to 100 scale
Excerpt: as §1

[15] = tested on: wheat (Triticum aestivum); experiment: Test A preemergence, wheat; settings: 0 to 100 scale
Excerpt: as §1

[16] = tested on: barnyardgrass (Echinochloa crus-galli); experiment: Test A preemergence, barnyardgrass; settings: 0 to 100 scale
Excerpt: as §1

[17] = tested on: foxtail, giant (giant foxtail, Setaria faberii); experiment: Test A preemergence, foxtail, giant; settings: 0 to 100 scale
Excerpt: as §1

corn (Zea mays) [18] = experiment: Test A postemergence, corn; settings: 0 to 100 scale
Excerpt: as §1

[19] = tested on: pigweed (Amaranthus retroflexus); experiment: Test A postemergence, pigweed; settings: 0 to 100 scale
Excerpt: as §1

| SMILES | Plant response rating, Barnyardgrass ([1]; 125 g ai/ha) | Plant response rating, Barnyardgrass ([1]; 500 g ai/ha) | Plant response rating, Rice (rice (Oryza sativa)) | Plant response rating, Sedge, Umbrella [2] | Plant response rating, Velvetleaf ([3]; 125 g ai/ha) | Plant response rating, Velvetleaf ([3]; 500 g ai/ha) | Plant response rating, Velvetleaf ([4]; 125 g ai/ha) | Plant response rating, Velvetleaf ([4]; 500 g ai/ha) | Plant response rating, Ducksalad [5] | Plant response rating, Crabgrass, Large ([6]; 500 g ai/ha) | Plant response rating, Morningglory ([7]; 125 g ai/ha) | Plant response rating, Morningglory ([7]; 500 g ai/ha) | Plant response rating, Wheat ([8]; 125 g ai/ha) | Plant response rating, Wheat ([8]; 500 g ai/ha) | Plant response rating, Corn (corn (Zea mays) [10]; 125 g ai/ha) | Plant response rating, Corn (corn (Zea mays) [10]; 500 g ai/ha) | Plant response rating, Morningglory ([11]; 125 g ai/ha) | Plant response rating, Morningglory ([11]; 500 g ai/ha) | Plant response rating, Foxtail, Giant ([12]; 125 g ai/ha) | Plant response rating, Foxtail, Giant ([12]; 500 g ai/ha) | further results |
| --- | --- | --- | --- | --- | --- | --- | --- | --- | --- | --- | --- | --- | --- | --- | --- | --- | --- | --- | --- | --- | --- |
| Clc1cnc(Oc2cccnc2-n2cc(Cl)cn2)nc1 [Compound 2, 5-chloro-2-[[2-(4-chloro-1H-pyrazol-1-yl)-3-pyridinyl]oxy]pyrimidine] | 0 | 20 | 0 | 75 | 20 | 70 | 10 | 30 | 80 | 100 | 40 | 80 | 10 | 20 | 0 | 0 | 0 | 0 | 0 | 30 | Plant response rating, Barnyardgrass [9]: 0; Plant response rating, Crabgrass, Large ([13]; 125 g ai/ha): 10; Plant response rating, Crabgrass, Large ([13]; 500 g ai/ha): 40; Plant response rating, Pigweed ([14]; 125 g ai/ha): 70; Plant response rating, Pigweed ([14]; 500 g ai/ha): 90; Plant response rating, Wheat ([15]; 125 g ai/ha): 0; Plant response rating, Wheat ([15]; 500 g ai/ha): 10; Plant response rating, Barnyardgrass ([16]; 125 g ai/ha): 0; Plant response rating, Barnyardgrass ([16]; 500 g ai/ha): 40; Plant response rating, Foxtail, Giant ([17]; 125 g ai/ha): 10; Plant response rating, Foxtail, Giant ([17]; 500 g ai/ha): 80; Plant response rating, Corn (corn (Zea mays) [18]; 125 g ai/ha): 0; Plant response rating, Corn (corn (Zea mays) [18]; 500 g ai/ha): 10; Plant response rating, Pigweed ([19]; 125 g ai/ha): 100; Plant response rating, Pigweed ([19]; 500 g ai/ha): 100 |
| Cc1cnn(-c2ncccc2Oc2ncc(Cl)cn2)c1 [Compound 3] | 0 | 10 | 0 | 60 | 10 | 20 | 0 | 0 | 0 | 0 | 20 | 30 | 10 | 10 | 0 | 0 | 0 | 0 | 0 | 10 | Plant response rating, Crabgrass, Large ([6]; 125 g ai/ha): 0; Plant response rating, Barnyardgrass [9]: 0; Plant response rating, Crabgrass, Large ([13]; 125 g ai/ha): 10; Plant response rating, Crabgrass, Large ([13]; 500 g ai/ha): 10; Plant response rating, Pigweed ([14]; 125 g ai/ha): 0; Plant response rating, Pigweed ([14]; 500 g ai/ha): 10; Plant response rating, Wheat ([15]; 125 g ai/ha): 0; Plant response rating, Wheat ([15]; 500 g ai/ha): 0; Plant response rating, Barnyardgrass ([16]; 125 g ai/ha): 0; Plant response rating, Barnyardgrass ([16]; 500 g ai/ha): 0; Plant response rating, Foxtail, Giant ([17]; 125 g ai/ha): 0; Plant response rating, Foxtail, Giant ([17]; 500 g ai/ha): 0; Plant response rating, Corn (corn (Zea mays) [18]; 125 g ai/ha): 0; Plant response rating, Corn (corn (Zea mays) [18]; 500 g ai/ha): 10; Plant response rating, Pigweed ([19]; 125 g ai/ha): 10; Plant response rating, Pigweed ([19]; 500 g ai/ha): 40 |
| Clc1cnc(Oc2cccnc2-n2cc(-c3ccccc3)cn2)nc1 [Compound 4] | 0 | 20 | 10 | 70 | 0 | 0 | 0 | 0 | 0 | 0 | 0 | 10 | 0 | 0 | 0 | 0 | 0 | 0 | 0 | 0 | Plant response rating, Crabgrass, Large ([6]; 125 g ai/ha): 0; Plant response rating, Crabgrass, Large ([13]; 125 g ai/ha): 0; Plant response rating, Crabgrass, Large ([13]; 500 g ai/ha): 0; Plant response rating, Pigweed ([14]; 125 g ai/ha): 0; Plant response rating, Pigweed ([14]; 500 g ai/ha): 0; Plant response rating, Wheat ([15]; 125 g ai/ha): 0; Plant response rating, Wheat ([15]; 500 g ai/ha): 0; Plant response rating, Barnyardgrass ([16]; 125 g ai/ha): 0; Plant response rating, Barnyardgrass ([16]; 500 g ai/ha): 0; Plant response rating, Foxtail, Giant ([17]; 125 g ai/ha): 0; Plant response rating, Foxtail, Giant ([17]; 500 g ai/ha): 0; Plant response rating, Corn (corn (Zea mays) [18]; 125 g ai/ha): 0; Plant response rating, Corn (corn (Zea mays) [18]; 500 g ai/ha): 30; Plant response rating, Pigweed ([19]; 125 g ai/ha): 20; Plant response rating, Pigweed ([19]; 500 g ai/ha): 70 |
